Data published in patent publication US20250312323A1 (Cavion, Inc., priority 2018, published 2025).
Values joined by “and” are separate entries in the source; they are usually repeats but may differ in a detail not shown here. Equal values may be shown once. Read-outs that look alike come from different tables or passages of the source.

Key:
[1] = tested on: harmaline-induced tremor model in rats; details: 3 ascending doses per os; cited from earlier work
[2] = assay type: in vivo; details: rat NOAEL 300 mg/kg
[3] = Single-dose crossover pharmacokinetics of IR, MR1 and MR2 capsules (8 mg); assay type: in vivo, human; parameters: AUC72hr: unit not given beside the values; details: plasma, following a single 8 mg dose of IR CX-8998
[4] = assay type: in vivo; details: dog NOAEL 30 mg/kg

Row | SMILES | harmaline-induced tremor [1] | physiologic tremor before administration of harmaline [1] | Total safety margin, AUC24 hr (animal AUC / human estimated AUC at steady state, 10 mg BID) ([2]; Day 90, female) [fold] | Total safety margin, Css (animal Cmax / human estimated Css at steady state, 10 mg BID) ([2]; Day 90, female) [fold] | Total safety margin, AUC24 hr (animal AUC / human estimated AUC at steady state, 10 mg BID) ([2]; Day 90, male) [fold] | Total safety margin, Css (animal Cmax / human estimated Css at steady state, 10 mg BID) ([2]; Day 90, male) [fold] | AUC72hr [3] | Cmax [3] [nM] | Total safety margin, AUC24 hr (animal AUC / human estimated AUC at steady state, 10 mg BID) ([4]; Day 90, female) [fold] | Total safety margin, Css (animal Cmax / human estimated Css at steady state, 10 mg BID) ([4]; Day 90, female) | Total safety margin, AUC24 hr (animal AUC / human estimated AUC at steady state, 10 mg BID) ([4]; Day 90, male) [fold] | Total safety margin, Css (animal Cmax / human estimated Css at steady state, 10 mg BID) ([4]; Day 90, male) [fold]
1 | CC1(C)C[C@@H](CN2CCC(F)(CNC(=O)c3cc(Cl)cc(Cl)c3)CC2)CCO1 [TTA-P2] | dose-dependent response | dose-dependent response to a reduction in physiologic tremor | – | – | – | – | – | – | – | – | – | –
2 | C=C(C)c1ccc(CC(=O)N[C@H](C)c2ccc(OCC(F)(F)F)cn2)cc1 [M01] | – | – | 13 | 21 | 6.8 | 13 | 6876 | 124 | 5.6 | 8 fold and 8.0 fold | 6.5 | 10
3 | C[C@@H](NC(=O)Cc1ccc(C(C)(C)O)cc1)c1ccc(OCC(F)(F)F)cn1 [M02] | – | – | – | – | – | – | – | 122 | – | – | – | –
